Measured values taken from patent US12497395B2, “Small molecule bromodomain inhibitors and uses therof” (ConverGene, LLC, priority 2019, dated 2025).
pIC50, pKd: −log10 of the molar value. Like-named read-outs stand apart in the source and are kept apart here.

Key:
[1] = biological target: BRDT (BD2) (Homo sapiens, UniProt Q58F21); experiment: BROMOscan competitive ligand binding assay, BRDT (BD2)
[2] = biological target: CBP (Homo sapiens, UniProt Q92793); experiment: BROMOscan competitive ligand binding assay, CBP
[3] = biological target: BRD3 (BD2) (Homo sapiens, UniProt Q15059); experiment: BROMOscan competitive ligand binding assay, BRD3 (BD2)
[4] = biological target: BRD2 (BD1) (Homo sapiens, UniProt P25440); experiment: BROMOscan competitive ligand binding assay, BRD2 (BD1)
[5] = biological target: BRD4 (BD1, 2) (Homo sapiens, UniProt O60885); experiment: BROMOscan competitive ligand binding assay, BRD4 (BD1, 2)
[6] = biological target: BRDT (BD1) (Homo sapiens, UniProt Q58F21); experiment: BROMOscan competitive ligand binding assay, BRDT (BD1)
[7] = biological target: BRD2 (BD2) (Homo sapiens, UniProt P25440); experiment: BROMOscan competitive ligand binding assay, BRD2 (BD2)
[8] = tested on: MV4-11 cells; experiment: MV4-11 cytotoxicity assay (CellTiter-Glo); format: cell-based; details: Homo sapiens, 72 hr incubation
Protocol: Cell lines: The MV4-11 cell line were obtained from American Type Culture Collection (ATCC, Manassas, VA, USA) and cultured in RPMI 1640 (Invitrogen 11879020) culture medium supplemented with 10% fetal bovine serum and 100 units/mL Penicillin, 100 μg/mL Streptomycin and maintained in a 37° C., 5% CO2/95% humidified air incubator.
Cytotoxicity Assay: MV4-11 cells were cultured as described above, and plated in 1536-well white solid tissue culture plates using a Multidrop Combi peristaltic dispenser (ThermoFisher, Waltham, MA) at a density of 500 cells/well in 5 μL of RPMI 1640 (Invitrogen 11879020) culture medium supplemented with 10% fetal bovine serum and 100 units/mL Penicillin, 100 μg/mL Streptomycin. A 1536-well pintool dispenser outfitted with 20 nL pins (Wako Automation, San Diego, CA) was used to transfer 23 nL of compound in DMSO to the 1536-well assay plates. After 72 hr incubation at 37° C., 2.5 μL of CellTiter-Glo (Promega) was dispensed into each well using a BioRAPTR FRD dispenser (Beckman Coulter, Brea, CA). Plates were incubated at room temperature for 10 minutes, transferred to a ViewLux microplate imager (Perkin Elmer, Waltham, MA) and the ATP-coupled luminescence was measured using a 1 second exposure.

[9] = biological target: BRD4 (BD1) (Homo sapiens, UniProt O60885); experiment: BROMOscan competitive ligand binding assay, BRD4 (BD1)
[10] = biological target: BRDT (BD1, 2) (Homo sapiens, UniProt Q58F21); experiment: BROMOscan competitive ligand binding assay, BRDT (BD1, 2)
[11] = biological target: BRD3 (BD1, 2) (Homo sapiens, UniProt Q15059); experiment: BROMOscan competitive ligand binding assay, BRD3 (BD1, 2)
[12] = biological target: BRD2 (BD1, 2) (Homo sapiens, UniProt P25440); experiment: BROMOscan competitive ligand binding assay, BRD2 (BD1, 2)
[13] = tested on: acute myeloid leukemia cell line Kasumi-1; experiment: Kasumi-1 cell viability assay (CellTiter-Blue); format: cell-based; details: Homo sapiens, read-out: Kasumi-1 IC50
Protocol: Cell viability assay: Cell viability assay was conducted to obtain G150, the compound concentration resulting in 50% growth inhibition, using an acute myeloid leukemia cell line Kasumi-1 (ATCC® CRL-2724™) (ATCC, Manassas, VA). Briefly, cells were seeded on a 96-well flat-bottom cell culture plate at the density of 30,000 cells per well (MV-4-11) or 10,000 cells per well (Kasumi-1) in RPMI supplemented with 10% fetal bovine serum and L-glutamine plus penicillin and streptomycin. Cells were maintained at 37° C. with 5% CO2 for 24 hours then exposed to a given compound at either 11 or 21 concentrations ranging from 0 μM to 20 μM in a 150 μL volume in the presence of 0.2% dimethyl sulfoxide, the solvent used in serial dilution of the compound. The exposure was maintained for approximately 72 hours and the cell viability was measured using CellTiter-Blue® (Promega, Madison, WI) according to manufacturer's instruction. GI50 values were calculated using a four-parameter dose-response model in Graph Pad Prism (La Jolla, CA).

[14] = biological target: T1, full-length recombinant human BRD4 (Homo sapiens, UniProt O60885); experiment: AlphaScreen assay, full-length BRD4 with acetylated histone H4 peptide; format: binding; details: full-length BRD4, acetylated H4 peptide (1-21) ligand
T1 construct: His-tag (N); purchased Reaction Biology RD-21-153; host or cells: Sf9 insect cells
Protocol: AlphaScreen® assay, an […], was conducted by following manufacturer's protocol (PerkinElmer, Waltham, MA) at Reaction Biology (Malvern, PA) utilizing full-length recombinant human BRD4 corresponding to amino acid position 2-1362 (NCBI Reference Sequence: NM_058243) expressed in Sf9 insect cells with an N-terminal His-tag (Reaction Biology Catalog No. RD-21-153), and histone H4 peptide (1-21) containing acetylated lysine residues at positions 5, 8, 12 and 16 as the ligand. […] H4 ligand peptide was then added and the mixture was incubated for another 30 minutes at room temperature. Streptavidin-coated donor beads and Ni acceptor beads were then added, and the mixture was incubated for additional 60 minutes. Fluorescent measurements (Ex/Em=680/520-620 nm) were taken and the data were fitted to the Hill equation with variable slopes to obtain IC50 values.

[15] = biological target: T2, P300 (Homo sapiens, UniProt Q09472); experiment: BROMOscan competitive ligand binding assay, P300
T2 sequence (Q09472 1049-1156 limits assumed): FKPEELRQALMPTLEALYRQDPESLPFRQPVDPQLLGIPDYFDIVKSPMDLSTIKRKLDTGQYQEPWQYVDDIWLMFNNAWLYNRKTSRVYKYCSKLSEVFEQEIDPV

[16] = biological target: BRD4 (BD2) (Homo sapiens, UniProt O60885); experiment: BROMOscan competitive ligand binding assay, BRD4 (BD2)
[17] = biological target: BRD3 (BD1) (Homo sapiens, UniProt Q15059); experiment: BROMOscan competitive ligand binding assay, BRD3 (BD1)
[18] = Kasumi 1, approximately 72 hours exposure, CellTiter-Blue

Sequence of CBP (Q92793 1085-1192 limits assumed): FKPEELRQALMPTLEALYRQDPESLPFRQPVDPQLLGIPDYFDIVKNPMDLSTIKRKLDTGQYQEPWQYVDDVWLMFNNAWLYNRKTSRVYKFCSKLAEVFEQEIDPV
Sequence of BRD3 (BD2) (Q15059 306-415 limits assumed): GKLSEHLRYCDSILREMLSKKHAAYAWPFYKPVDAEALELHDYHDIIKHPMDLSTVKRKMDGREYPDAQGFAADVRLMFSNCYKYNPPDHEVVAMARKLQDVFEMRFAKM
Sequence of BRD2 (BD1, 2) (P25440 71-455 limits assumed): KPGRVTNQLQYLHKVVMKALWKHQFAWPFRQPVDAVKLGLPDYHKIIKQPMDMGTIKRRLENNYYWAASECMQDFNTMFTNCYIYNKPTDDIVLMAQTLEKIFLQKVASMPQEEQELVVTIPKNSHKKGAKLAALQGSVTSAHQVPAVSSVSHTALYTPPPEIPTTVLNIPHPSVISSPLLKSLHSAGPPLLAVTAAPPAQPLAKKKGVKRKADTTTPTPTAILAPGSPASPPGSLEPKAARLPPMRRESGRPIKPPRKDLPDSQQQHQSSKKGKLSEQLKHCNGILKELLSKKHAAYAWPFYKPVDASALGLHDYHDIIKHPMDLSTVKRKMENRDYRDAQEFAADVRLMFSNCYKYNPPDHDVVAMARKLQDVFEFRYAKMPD
Sequence of BRD2 (BD1) (P25440 74-180 limits assumed): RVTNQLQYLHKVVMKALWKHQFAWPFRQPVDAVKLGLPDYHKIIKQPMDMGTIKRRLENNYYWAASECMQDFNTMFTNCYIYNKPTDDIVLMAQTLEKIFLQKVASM
Sequence of BRD3 (BD1, 2) (Q15059 24-416 limits assumed): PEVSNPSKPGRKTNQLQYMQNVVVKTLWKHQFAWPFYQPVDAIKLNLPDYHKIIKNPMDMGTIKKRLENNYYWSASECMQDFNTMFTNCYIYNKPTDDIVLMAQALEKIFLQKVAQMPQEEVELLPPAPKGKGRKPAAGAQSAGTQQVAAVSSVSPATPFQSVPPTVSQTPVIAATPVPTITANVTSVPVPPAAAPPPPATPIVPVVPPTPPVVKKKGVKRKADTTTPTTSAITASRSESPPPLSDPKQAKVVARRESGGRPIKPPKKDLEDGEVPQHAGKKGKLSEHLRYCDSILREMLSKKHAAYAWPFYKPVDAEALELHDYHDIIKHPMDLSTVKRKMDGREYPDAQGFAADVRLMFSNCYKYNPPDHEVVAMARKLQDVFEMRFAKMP
Sequence of BRD3 (BD1) (Q15059 34-140 limits assumed): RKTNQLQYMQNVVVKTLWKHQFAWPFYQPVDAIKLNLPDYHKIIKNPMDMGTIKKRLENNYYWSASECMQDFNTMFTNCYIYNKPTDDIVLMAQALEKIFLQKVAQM
Sequence of BRD2 (BD2) (P25440 344-453 limits assumed): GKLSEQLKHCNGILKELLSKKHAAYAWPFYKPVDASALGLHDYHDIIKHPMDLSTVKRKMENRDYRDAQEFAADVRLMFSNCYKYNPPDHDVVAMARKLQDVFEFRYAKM

Cc1cc(-c2ccc3nc(-c4cnn(CC(C)(C)O)c4)nc(N4CCOC[C@@H]4c4ccccc4)c3c2)cn(C)c1=O [Cpd. 1, (S)-5-(2-(1-(2-hydroxy-2-methylpropyl)-1H-pyrazol-4-yl)-4-(3-phenylmorpholino)quinazolin-6-yl)-1,3-dimethylpyridin-2(1H)-one]
pKd [1]: > 7.00
pKd [2]: > 7.00
pKd [3]: > 7.00
pKd [4]: > 7.00
pKd ([5]; Table 3): > 7.00
pKd ([5]; tandem bromodomains): > 7.00
pKd [6]: > 7.00
pKd [7]: > 7.00
pIC50 [8]: 6.30 to 7.00
pKd [9]: > 7.00
pKd [10]: > 7.00
pKd [11]: > 7.00
pKd [12]: > 7.00
pIC50 ([13]; Kasumi 1, 72 h): > 7.00
pIC50 [14]: > 7.00
pKd [15]: > 7.00
pKd [16]: > 7.00
pKd [17]: > 7.00

Cn1cc(-c2ccc3nc(-c4cnn(CC(C)(C)O)c4)nc(N4CCOC[C@@H]4c4ccccc4)c3c2)c2cc[nH]c2c1=O [Cpd. 2, (S)-4-(2-(1-(2-hydroxy-2-methylpropyl)-1H-pyrazol-4-yl)-4-(3-phenylmorpholino)quinazolin-6-yl)-6-methyl-1,6-dihydro-7H-pyrrolo[2,3-c]pyridin-7-one]
pKd [1]: > 7.00
pKd [2]: > 7.00
pKd [3]: > 7.00
pKd [4]: > 7.00
pKd ([5]; Table 3): > 7.00
pKd ([5]; tandem bromodomains): > 7.00
pKd [6]: > 7.00
pKd [7]: > 7.00
pIC50 [8]: > 7.00
pKd [9]: > 7.00
pKd [10]: > 7.00
pKd [11]: > 7.00
pKd [12]: > 7.00
pIC50 [13, 18]: > 7.00
pIC50 [14]: > 7.00
pKd [15]: > 7.00
pKd [16]: > 7.00
pKd [17]: > 7.00

Cc1cc(-c2ccc3nc(-c4cnn(CC(C)(C)O)c4)nc(N4CCOC[C@@H]4C4CC4)c3c2)cn(C)c1=O [Cpd. 3, (S)-5-(4-(3-cyclopropylmorpholino)-2-(1-(2-hydroxy-2-methylpropyl)-1H-pyrazol-4-yl)quinazolin-6-yl)-1,3-dimethylpyridin-2(1H)-one]
pKd [2]: 6.30 to 7.00
pKd ([5]; tandem bromodomains): > 7.00
pIC50 [8]: 5.30 to 6.30
pIC50 [14]: 6.30 to 7.00
pKd [15]: 6.30 to 7.00

Cn1cc(-c2ccc3nc(-c4cnn(CC(C)(C)O)c4)nc(N4CCOC[C@@H]4C4CC4)c3c2)c2cc[nH]c2c1=O [Cpd. 4, (S)-4-(4-(3-cyclopropylmorpholino)-2-(1-(2-hydroxy-2-methylpropyl)-1H-pyrazol-4-yl)quinazolin-6-yl)-6-methyl-1,6-dihydro-7H-pyrrolo[2,3-c]pyridin-7-one]
pKd [2]: > 7.00
pKd ([5]; tandem bromodomains): > 7.00
pIC50 [8]: > 7.00
pIC50 [14]: > 7.00
pKd [15]: > 7.00

Cn1cc(-c2ccc3nc(-c4cnn(CC(C)(C)O)c4)nc(N4CCOC[C@@H]4c4ccc(F)cc4)c3c2)c2cc[nH]c2c1=O [Cpd. 5, (S)-4-(4-(3-(4-fluorophenyl)morpholino)-2-(1-(2-hydroxy-2-methylpropyl)-1H-pyrazol-4-yl)quinazolin-6-yl)-6-methyl-1,6-dihydro-7H-pyrrolo[2,3-c]pyridin-7-one]
pKd [2]: > 7.00
pKd ([5]; tandem bromodomains): > 7.00
pIC50 [8]: 6.30 to 7.00
pIC50 [13, 18]: > 7.00
pIC50 [14]: > 7.00
pKd [15]: > 7.00

Cc1cc(-c2ccc3nc(-c4cnn(CC(C)(C)O)c4)nc(N4CCOC[C@@H]4c4ccc(F)cc4)c3c2)cn(C)c1=O [Cpd. 6, (S)-5-(4-(3-(4-fluorophenyl)morpholino)-2-(1-(2-hydroxy-2-methylpropyl)-1H-pyrazol-4-yl)quinazolin-6-yl)-1,3-dimethylpyridin-2(1H)-one]
pKd [2]: > 7.00
pKd ([5]; tandem bromodomains): > 7.00
pIC50 [8]: 6.30 to 7.00
pIC50 [13, 18]: > 7.00
pIC50 [14]: > 7.00
pKd [15]: > 7.00

Cc1cc(-c2ccc3nc(N4CCO[C@H](CO)C4)nc(N4CCOC[C@@H]4C4CCCCC4)c3c2)cn(C)c1=O [Cpd. 10, 5-(4-((S)-3-cyclohexylmorpholino)-2-((S)-2-(hydroxymethyl)morpholino)quinazolin-6-yl)-1,3-dimethylpyridin-2(1H)-one]
pKd [2]: 6.30 to 7.00
pKd [15]: 6.30 to 7.00

Cc1cc(-c2ccc3nc(N4CCO[C@H](CO)C4)nc(N4CCOC[C@@H]4c4ccccc4)c3c2)cn(C)c1=O [Cpd. 11, 5-(2-((S)-2-(hydroxymethyl)morpholino)-4-((S)-3-phenylmorpholino)quinazolin-6-yl)-1,3-dimethylpyridin-2(1H)-one]
pKd [2]: > 7.00
pKd [15]: > 7.00

Cc1cc(-c2ccc3nc(-c4cnn(CC(C)(C)O)c4)nc(N4CCOC[C@@H]4C4CCCCC4)c3c2)cn(C)c1=O [Cpd. 12, (S)-5-(4-(3-cyclohexylmorpholino)-2-(1-(2-hydroxy-2-methylpropyl)-1H-pyrazol-4-yl)quinazolin-6-yl)-1,3-dimethylpyridin-2(1H)-one]
pKd [2]: 6.30 to 7.00
pKd [15]: 6.30 to 7.00

Cn1cc(-c2ccc3nc(N4CCO[C@H](CO)C4)nc(N4CCOC[C@@H]4C4CCCCC4)c3c2)c2cc[nH]c2c1=O [Cpd. 13, 4-(4-((S)-3-cyclohexylmorpholino)-2-((S)-2-(hydroxymethyl)morpholino)quinazolin-6-yl)-6-methyl-1,6-dihydro-7H-pyrrolo[2,3-c]pyridin-7-one]
pKd [2]: > 7.00
pKd [15]: > 7.00

Cn1cc(-c2ccc3nc(-c4cnn(CC(C)(C)O)c4)nc(N4CCOC[C@@H]4C4CCCCC4)c3c2)c2cc[nH]c2c1=O [Cpd. 14, (S)-4-(4-(3-cyclohexylmorpholino)-2-(1-(2-hydroxy-2-methylpropyl)-1H-pyrazol-4-yl)quinazolin-6-yl)-6-methyl-1,6-dihydro-7H-pyrrolo[2,3-c]pyridin-7-one]
pKd [2]: > 7.00
pKd [15]: 6.30 to 7.00

Cn1cc(-c2ccc3nc(N4CCO[C@H](CO)C4)nc(N4CCOC[C@@H]4c4ccc(F)cc4)c3c2)c2cc[nH]c2c1=O [Cpd. 15, 4-(4-((S)-3-(4-fluorophenyl)morpholino)-2-((S)-2-(hydroxymethyl)morpholino)quinazolin-6-yl)-6-methyl-1,6-dihydro-7H-pyrrolo[2,3-c]pyridin-7-one]
pKd [2]: > 7.00
pKd [15]: > 7.00
